We go through nine molecules from ChEMBL document CHEMBL1914350, “Convolutamines I and J, antitrypanosomal alkaloids from the bryozoan Amathia tortusa” (Bioorg Med Chem, 2011).

Molecules are shown by their SMILES. Converted amounts (≈) assume the structure as drawn.

In one data set the test system is P388. Put plainly: Cytotoxicity against mouse P388 cells. Type of data set: functional, cell-based.
The nature of data set [1]: Lipophilicity, log P of the compound. Type of data set: physicochemical. As to conditions: octanol/water.
Data set [2] deals with Trypanosoma brucei brucei. Put plainly: Antitrypanosomal activity against Trypanosoma brucei brucei after 48 hrs by alamar blue assay. Type of data set: functional, organism-based. For orientation: The colour change of resazurin is a common sign of viable cells or microbes.
Data set [3] deals with HEK293. Put plainly: Cytotoxicity against human HEK293 cells at 41 uM after 48 hrs by alamar blue assay. Type of data set: cell-based. As to conditions: hek293, 48 h.
Data set [4] can be described thus: Antimitotic activity in sea urchins assessed as inhibition of fertilized egg cell division. Type of data set: functional, Echinoidea.
Data set [5] has as its system HEK293. Put plainly: Cytotoxicity against human HEK293 cells at 70 uM after 48 hrs by alamar blue assay. The format is cell-based. As to conditions: hek293, 48 h.
Data set [6] deals with HEK293. The experiment in a line: Cytotoxicity against human HEK293 cells after 48 hrs by alamar blue assay. As to conditions: HEK293, 48 h. The format is cell-based.
A short description of data set [7]: Selectivity index, ratio of IC50 for human HEK293 cells to IC50 for Trypanosoma brucei brucei. The format is toxicity, cell-based. As to conditions: HEK293 cells versus Trypanosoma brucei brucei, read-out: Ratio IC50.
The subject of the next data set is Haemonchus contortus. The experiment in a line: Antiparasitic activity against Haemonchus contortus assessed as inhibition of free-living larval stage. Type of data set: functional.

`COc1c(Br)cc(Br)c(CCN(C)CC(C)O)c1Br` (stereo unspecified) [CONVOLUTAMINE A] gave an IC50 in the data set on P388 of 1.4 µg/mL (≈ 3.04 µM).

In the data set on P388, `COc1c(Br)cc(Br)c(CCN2COC(C)C2)c1Br` (stereo unspecified) [CONVOLUTAMINE D] showed an IC50 of 1.4 µg/mL (≈ 3.06 µM).

Consider `COc1c(Br)cc(Br)c(CCN2C=[N+](C)CCC2)c1Br` [CONVOLUTAMINE J], for which the lipophilicity (logP) in [1] was found to be 3.9. Also, half-maximal inhibition in data set [2] (IC50) required 13.7 µM. For the same molecule, in the data set on HEK293 [3], the Activity result is “Non-toxic”.

Regarding `CNCCc1c(Br)cc(Br)c(OC)c1Br` [CONVOLUTAMINE F], the IC50 in [4] worked out at 81 µg/mL (≈ 202 µM).

For `COc1ccc(Br)c(CCN(C)CC(C)O)c1Br` (stereo unspecified) [CONVOLUTAMINE B], the IC50 with P388 was 1.4 µg/mL (≈ 3.67 µM).

In data set [2], `N=C(N)c1ccc(/N=N/Nc2ccc(C(=N)N)cc2)cc1` [DIMINAZENE] displayed an IC50 of 0.0701 µM. The Activity entry in the data set with HEK293 [5] is “Non-toxic”.

In the case of `COc1c(Br)cc(Br)c(CCNCCCN(C)C)c1Br` [CONVOLUTAMINE I], the IC50 with HEK293 [6] came to 22 µM; in data set [2] it was 1.1 µM. For the same molecule, in data set [1], the logP came to 4.1. In data set [7], the selectivity ratio came out at 18.3.

Consider `N=C(N)c1ccc(OCCCCCOc2ccc(C(=N)N)cc2)cc1` [PENTAMIDINE], for which the IC50 with HEK293 [6] is 71 µM; in data set [2], 0.0151 µM.

As to `CNCCc1c(Br)c(Br)c(Br)c(OC)c1OC` [CONVOLUTAMINE H], in the data set on Haemonchus contortus, the LD99 worked out at 0.2 µg/mL.

In general, IC50 refers to the point on the concentration scale where inhibition reaches its midpoint. One may read the logP as the decadic logarithm of the partition coefficient of the neutral form, usually between octanol and water. A high value points to a more lipophilic compound.
